From PubChem BioAssay AID330 (DTP/NCI, 2004)
Where “and” joins values, the source holds several entries; their conditions need not be identical. Identical values can stand only once. Inconclusive results and toxic doses are left out. Rule for the calls: active = survival T/C of 150% or more; inactive = T/C below 125% in these data.

Tested on: P388 leukemia ip, CD2F1 mice, survival T/C
Assay: NCI In Vivo Anticancer Drug Screen. Data for tumor model P388 Leukemia (intraperitoneal) in CD2F1 (CDF1) mice
Conditions: endpoint: median survival time, higher = longer survival
Method in brief: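 Mice carrying the transplanted tumor received test compound or vehicle. Survival was recorded in each group, and the value is the treated-group measurement divided by that of the vehicle-treated control group.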

[1] = dose: 50.0 mg/kg/injection, schedule: Q01DX005 (ip), vehicle: saline with Tween-80
[2] = dose: 100.0 mg/kg/injection, schedule: Q01DX005 (ip), vehicle: saline with Tween-80
[3] = dose: 200.0 mg/kg/injection, schedule: Q01DX005 (ip), vehicle: saline with Tween-80
[4] = dose: 60.0 mg/kg/injection, schedule: Q01DX005 (ip), vehicle: saline with Tween-80
[5] = dose: 120.0 mg/kg/injection, schedule: Q01DX005 (ip), vehicle: saline with Tween-80
[6] = dose: 50.0 mg/kg/injection, schedule: Q01DX005 (ip), vehicle: suspension in saline
[7] = dose: 100.0 mg/kg/injection, schedule: Q01DX005 (ip), vehicle: suspension in saline
[8] = dose: 200.0 mg/kg/injection, schedule: Q01DX005 (ip), vehicle: suspension in saline
[9] = dose: 50.0 mg/kg/injection, schedule: Q01DX009 (ip), vehicle: saline with Tween-80
[10] = dose: 100.0 mg/kg/injection, schedule: Q01DX009 (ip), vehicle: saline with Tween-80
[11] = dose: 50.0 mg/kg/injection, schedule: Q01DX009 (ip), vehicle: saline
[12] = dose: 100.0 mg/kg/injection, schedule: Q01DX009 (ip), vehicle: saline
[13] = dose: 200.0 mg/kg/injection, schedule: Q01DX009 (ip), vehicle: saline
[14] = dose: 100.0 mg/kg/injection, schedule: Q04DX003 (ip), vehicle: Klucel (hydroxypropylcellulose) (HPC)
[15] = dose: 200.0 mg/kg/injection, schedule: Q04DX003 (ip), vehicle: Klucel (hydroxypropylcellulose) (HPC)
[16] = dose: 400.0 mg/kg/injection, schedule: Q04DX003 (ip), vehicle: Klucel (hydroxypropylcellulose) (HPC)
[17] = dose: 50.0 mg/kg/injection, schedule: Q01DX009 (ip), vehicle: Klucel (hydroxypropylcellulose) (HPC)
[18] = dose: 100.0 mg/kg/injection, schedule: Q01DX009 (ip), vehicle: Klucel (hydroxypropylcellulose) (HPC)
[19] = dose: 200.0 mg/kg/injection, schedule: Q01DX009 (ip), vehicle: Klucel (hydroxypropylcellulose) (HPC)

Measured: T/C

COc1ccc(C2c3cc4c(cc3OC(C)(OC)C2C)OCO4)c(OC)c1 (configuration not stated)
inactive: [1] 88 % of control | [2] 88 % of control | [3] 91 % of control

c1ccc2c(CCc3c4ccccc4nc4ccccc34)c3ccccc3nc2c1
inactive: dose: 100.0 mg/kg/injection, schedule: Q01DX001 (ip), vehicle: Klucel (hydroxypropylcellulose) (HPC) 102 % of control | dose: 200.0 mg/kg/injection, schedule: Q01DX001 (ip), vehicle: Klucel (hydroxypropylcellulose) (HPC) 105 % of control | dose: 400.0 mg/kg/injection, schedule: Q01DX001 (ip), vehicle: Klucel (hydroxypropylcellulose) (HPC) 105 % of control

C=CCOCC1CN2CCOC2(C)O1 (configuration not stated)
inactive: dose: 200.0 mg/kg/injection, schedule: Q01DX009 (ip), vehicle: water 105 % of control | dose: 400.0 mg/kg/injection, schedule: Q01DX009 (ip), vehicle: water 97 % of control | dose: 800.0 mg/kg/injection, schedule: Q01DX009 (ip), vehicle: water 105 % of control | dose: 1600.0 mg/kg/injection, schedule: Q01DX009 (ip), vehicle: water 102 % of control

CCN(CC)C(=O)c1cccc2c1OCO2
inactive: [4] 94 % of control | [5] 98 % of control | dose: 240.0 mg/kg/injection, schedule: Q01DX005 (ip), vehicle: saline with Tween-80 95 % of control

Cn1ncc(N)nc1=S
inactive: [6] 101 % of control | [7] 97 % of control | [8] 105 % of control

NC(=O)c1ccccc1OC(=O)NCCO
inactive: [9] 106 % of control | [10] 95 % of control | dose: 200.0 mg/kg/injection, schedule: Q01DX009 (ip), vehicle: saline with Tween-80 100 % of control

COC1(c2ccc(C)cc2)OC12CCN(C)CC2 (configuration not stated)
inactive: [1] 106 % of control | [2] 95 % of control | [3] 106 % of control

OCC(O)C(O)C(O)/C=N\O (configuration not stated)
inactive: [11] 98 % of control | [12] 105 % of control | [13] 98 % of control

CC(=O)OCC(OC(C)=O)C(OC(C)=O)C(OC1OC(COC(C)=O)C(OC(C)=O)C(OC(C)=O)C1OC(C)=O)C(COC(C)=O)OC(C)=O (configuration not stated)
inactive: [6] 97 % of control | [7] 91 % of control | [8] 99 % of control

Clc1ccccc1CN1COc2c(cc(Cl)c3cccnc23)C1
inactive: [14] 95 % of control | [15] 95 % of control | [16] 95 % of control

CCCCN(CCCC)CC(O)c1c(Cl)c2ccccc2c2ccccc12 (configuration not stated)
inactive: dose: 25.0 mg/kg/injection, schedule: Q01DX009 (ip), vehicle: saline with Tween-80 100 % of control | [9] 93 % of control | [10] 100 % of control

COc1cc(C2c3cc4c(cc3OC(O)C2C)OCO4)cc(OC)c1OC (configuration not stated)
inactive: dose: 15.0 mg/kg/injection, schedule: Q01DX005 (ip), vehicle: saline with Tween-80 99 % of control | dose: 30.0 mg/kg/injection, schedule: Q01DX005 (ip), vehicle: saline with Tween-80 101 % of control | [4] 99 % of control and 112 % of control | [5] 117 % of control

CC1(C)CCCc2c(-c3ccccc3)cc3c4ccccc4cc[n+]3c21
inactive: [9] 89 % of control | [10] 88 % of control

Nc1ccc(S(=O)(=O)NC(CSSCC(NS(=O)(=O)c2ccc(N)cc2)C(=O)O)C(=O)O)cc1 (configuration not stated)
inactive: dose: 50.0 mg/kg/injection, schedule: Q01DX005 (ip), vehicle: Klucel (hydroxypropylcellulose) (HPC) 110 % of control | dose: 100.0 mg/kg/injection, schedule: Q01DX005 (ip), vehicle: Klucel (hydroxypropylcellulose) (HPC) 101 % of control | dose: 200.0 mg/kg/injection, schedule: Q01DX005 (ip), vehicle: Klucel (hydroxypropylcellulose) (HPC) 113 % of control

C/C(=N/O)C1CCC(C2CCCC(C3CCCCC3)C2)CC1 (configuration not stated)
inactive: [1] 94 % of control | [2] 94 % of control | [3] 93 % of control

CCC[CH2][Sn]([CH2]CCC)([CH2]CCN(C)C)[CH2]CCN(C)C
inactive: [9] 97 % of control | [10] 104 % of control

CC(=O)Nc1ccc(N=Nc2c(S(=O)(=O)O)cc3cc(NC(C)=O)ccc3c2O)cc1
inactive: dose: 50.0 mg/kg/injection, schedule: Q01DX005 (ip), vehicle: saline 98 % of control and 100 % of control | dose: 100.0 mg/kg/injection, schedule: Q01DX005 (ip), vehicle: saline 100 % of control and 103 % of control | dose: 200.0 mg/kg/injection, schedule: Q01DX005 (ip), vehicle: saline 99 % of control

ClC(Cl)(Cl)CN1CCCCC1Cc1ccccc1 (configuration not stated)
inactive: dose: 30.0 mg/kg/injection, schedule: Q01DX005 (ip), vehicle: Klucel (hydroxypropylcellulose) (HPC) 101 % of control | dose: 60.0 mg/kg/injection, schedule: Q01DX005 (ip), vehicle: Klucel (hydroxypropylcellulose) (HPC) 100 % of control

CC1(C)OC(=O)C=C[C@]2(C)[C@H]3CC[C@]4(C)C(=CCC4c4ccoc4)[C@]3(C)[C@H](O)C[C@@H]12 (some centres not stated)
inactive: dose: 11.25 mg/kg/injection, schedule: Q01DX005 (ip), vehicle: Klucel (hydroxypropylcellulose) (HPC) 101 % of control | dose: 22.5 mg/kg/injection, schedule: Q01DX005 (ip), vehicle: Klucel (hydroxypropylcellulose) (HPC) 98 % of control | dose: 45.0 mg/kg/injection, schedule: Q01DX005 (ip), vehicle: Klucel (hydroxypropylcellulose) (HPC) 94 % of control | dose: 90.0 mg/kg/injection, schedule: Q01DX005 (ip), vehicle: Klucel (hydroxypropylcellulose) (HPC) 98 % of control | dose: 180.0 mg/kg/injection, schedule: Q01DX005 (ip), vehicle: Klucel (hydroxypropylcellulose) (HPC) 91 % of control

COc1cc2c3c(c1O)-c1c(cccc1OC)CC3N(C)CC2 (configuration not stated)
inactive: dose: 12.5 mg/kg/injection, schedule: Q04DX003 (ip), vehicle: saline with Tween-80 90 % of control | dose: 25.0 mg/kg/injection, schedule: Q04DX003 (ip), vehicle: saline with Tween-80 100 % of control and 88 % of control

CC1(C)NC1C(O)c1ccccc1 (configuration not stated)
inactive: [11] 102 % of control | [12] 103 % of control | [13] 104 % of control

C(C#CCN1CCOCC1)#CCN1CCOCC1
inactive: [17] 109 % of control and 89 % of control | [18] 101 % of control and 89 % of control | [19] 101 % of control and 93 % of control | dose: 400.0 mg/kg/injection, schedule: Q01DX009 (ip), vehicle: Klucel (hydroxypropylcellulose) (HPC) 98 % of control

COc1cc(C)c(O)c(C/C=C(\C)CC2=C[C@@]3(C)CCC[C@@]3(C)[C@]3(CC(O)C(C)(C)O3)O2)c1 (some centres not stated)
inactive: dose: 20.0 mg/kg/injection, schedule: Q01DX005 (ip), vehicle: saline with Tween-80 98 % of control | dose: 40.0 mg/kg/injection, schedule: Q01DX005 (ip), vehicle: saline with Tween-80 100 % of control | dose: 80.0 mg/kg/injection, schedule: Q01DX005 (ip), vehicle: saline with Tween-80 119 % of control

CC(=O)CS(C)(=O)=O
inactive: dose: 25.0 mg/kg/injection, schedule: Q01DX009 (ip), vehicle: saline 103 % of control | [11] 102 % of control | [12] 101 % of control | [13] 98 % of control

CCCCCCSc1nc2ccc(NC(C)=O)cc2s1
inactive: [17] 107 % of control | [18] 90 % of control

COc1ccc([N+](=O)[O-])cc1NS(=O)(=O)c1ccc(NC(C)=O)cc1
inactive: [17] 100 % of control | [18] 99 % of control | [19] 99 % of control

CCCC1(c2ccccc2)CCCC(C#N)C1=N (configuration not stated)
inactive: [14] 97 % of control | [15] 98 % of control | [16] 92 % of control
